This passage reports IC50 and recruitment of neutrophils results from patent US20150216867A1, “COMPOUNDS FOR USE IN GASTRIC COMPLICATION” (NOVARTIS AG, priority 2012, published 2015).

The term IC50 denotes the concentration that gives 50% inhibition.

Counter-ions that a name gives are not always drawn.

Assay [1] has as its target T1, human GPR4 (Homo sapiens, UniProt P46093). Put plainly: Human GPR4 binding assay with additional human serum albumin (4% HSA). Also on record: c-myc (N); expressed in transfected cells. The settings on record: binding assay with additional 4% human serum albumin. How it is done: (§1) Cells were grown in T175 flasks to a density of about 1×10^6 cells/mL in growth medium. The cells were harvested by centrifugation (3000 rpm for 30 minutes at 4° C.) and the pellet resuspended in ice cold buffer A (20 mM HEPES pH 7.8, 10 mM EDTA, 100 mM NaCl, 1 tab/40 mL protease inhibitor complete). […] The homogenate was centrifuged at 18000 rpm for 50 min at 4° C. and the membrane protein pellet resuspended in cold buffer A using the Polytron (2×20 seconds). The protein concentration is determined using the Bio Rad Protein Assay and human IgG as standard. The volume of the membrane protein suspension is adjusted to a final concentration of about 2 mg protein/mL. The suspension is then once again homogenized (Polytron) on ice at 25000 rpm for 20 seconds before being aliquoted and stored at −80° C.
Radio Ligand Binding Assay: Serial dilutions of compounds (stock in 10 mM DMSO) are prepared by first diluting the compounds in DMSO followed by a 1:50 dilution into assay buffer (10 mM HEPES, pH 8.0, 100 mM NaCl, 5 mM MgCl2, 1 mM CaCl2, 0.5% fatty acid-free BSA, 0.05% Tween-20). […] The desired amount of membranes (20 μg/well) is diluted with assay buffer. […] 100 μL of the membrane-suspension is added and the plate stirred for 60 minutes. […] Finally the plate is counted for 2 min/well in a TopCount NXT instrument (Packard Instruments). The data are analyzed using the GraphPad Prism™ software. […]

In assay [2] the target is T1, human GPR4. Nature of the assay: Cell-based assay for human GPR4 activity: pH-induced cAMP formation (HTRF) in HeLa cells. Also on record: expressed in transfected cells. The conditions noted are these: HeLa cells stably expressing human GPR4, pH-induced cAMP formation. How it is done: HeLa cells stably expressing human GPR4 were established by transfecting the cells with a construct containing the human GPR4 coding sequence. The cells were grown in Dulbecco's Modified Eagle Medium (DMEM)/HAM's tissue culture medium F12 (HAM's F12) supplemented with 10% fetal calf serum (FCS), 100 u/ml penicillin, 100 μg/ml streptomycin and 400 μg/ml G418 and 10 mM Hepes pH 8.0. pH-induced formation of cAMP was determined using the homogeneous time resolved fluorescence (HTRF) technology as provided by CisBio Inc. The cells were seeded in 384-well plates and cultured for 24 hours at 37° C., 5% CO2 before performing the assay. Medium was removed and 10 μl buffer A (Hepes buffered saline (HBS), 10 mM Hepes, pH 8, 2 mM 3-Isobutyl-1-methylxanthin (IBMX)) was added. For compound testing, buffer A with 2× concentrated compounds was used. Cells were incubated for 15 min at room temperature. 10 μl buffer B (HBS, 30 mM Hepes, specific pH) was added to reach the appropriate final pH for stimulation (see below) and incubation was continued for 15 min at room temperature.
HBS: 130 mM NaCl, 0.9 mM NaH2PO4, 5.4 mM KCl, 0.8 mM MgSO4, CaCl2 1.8 mM, 25 mM glucose, 10-30 mM Hepes. Adjustment of HBS buffers:
Compounds were diluted from fresh stock solutions at 10 mM in DMSO to 2 mM and then used for serial dilutions in DMSO.
On the technique in general: Cyclic AMP is a second messenger, typically raised through Gs and lowered through Gi signalling.

Assay [3] concerns the target T1, human GPR4. Nature of the assay: Human GPR4 binding assay ([3H]4(example 39) radioligand, membranes of 300.19 cells). Also noted: c-myc (N); expressed in transfected cells. How it is done: as §1
Radio Ligand Binding Assay: Serial dilutions of compounds (stock in 10 mM DMSO) are prepared by first diluting the compounds in DMSO followed by a 1:50 dilution into assay buffer (10 mM HEPES, pH 8.0, 100 mM NaCl, 5 mM MgCl2, 1 mM CaCl2, 0.5% fatty acid-free BSA, 0.05% Tween-20). […] The desired amount of membranes (20 μg/well) is diluted with assay buffer. […] 100 μL of the membrane-suspension is added and the plate stirred for 60 minutes. […] Finally the plate is counted for 2 min/well in a TopCount NXT instrument (Packard Instruments). The data are analyzed using the GraphPad Prism™ software.

Assay [4] concerns cultured primary DRG cells. Nature of the assay: Dorsal root ganglia stimulation with acid: low pH (6.1) induced CGRP release. Type of assay: cell-based. The conditions noted are these: read-out: IC50, block of increased CGRP release. The source says: c) Dorsal Root Ganglia Stimulation with Acid—Blockade of the Effect with GPR4 Antagonist Low pH (6.1) induces a significant Calcitonin Gene-Related Peptide (CGPR) release in cultured primary DRG cells.

For assay [5], the system named is neutrophil recruitment into the BAL fluid. Put plainly: Neutrophil infiltration into mouse BAL fluid, cigarette smoke exposure model. Format: in vivo. The conditions noted are these: WT mice, cigarette smoke 2 weeks, 90 mg/kg po. How it is done:
e) Effect of GPR4 Antagonist on Neurophil Infiltration into Mouse BAL Fluid
The role of GPR4 on neutrophil recruitment was determined in the cigarette smoke exposure model. GPR4 WT (wild type) and KO (knockout) mice, and WT treated with the compounds of example No 41 and example No 40 (90 mg/kg po) were exposed to five cigarettes for 2 weeks. The mice were sacrificed 24 hours following last smoke exposure and bronchoalveolar lavage (BAL) was performed.
The following table summarizes the results obtained by the GPR4-mediated inhibition of neutrophil recruitment into the BAL fluid: […]

T1 sequence (P46093 whole entry): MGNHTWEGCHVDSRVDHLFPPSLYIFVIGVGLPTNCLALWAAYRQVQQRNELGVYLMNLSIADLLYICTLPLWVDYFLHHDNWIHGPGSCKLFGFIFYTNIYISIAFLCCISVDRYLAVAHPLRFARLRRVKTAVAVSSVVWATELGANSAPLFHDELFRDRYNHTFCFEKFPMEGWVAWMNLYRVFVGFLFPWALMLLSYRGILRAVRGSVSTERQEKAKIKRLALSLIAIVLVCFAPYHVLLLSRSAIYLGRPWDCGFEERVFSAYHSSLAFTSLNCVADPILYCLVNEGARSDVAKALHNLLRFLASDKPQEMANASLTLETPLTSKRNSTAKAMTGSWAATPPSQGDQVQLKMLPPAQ

As for `CCc1nn2c(C)cc(C)nc2c1Cc1ccc(/C=C/C(=O)N2CCNCC2)cc1` [Example 18, (E)-3-[4-(2-Ethyl-5,7-dimethyl-pyrazolo[1,5-a]pyrimidin-3-ylmethyl)-phenyl]-1-piperazin-1-yl-propenone hydrochloride], the concentration for half-maximal inhibition (IC50) at human GPR4 [1] amounted to 67 nM; on human GPR4 [2] it was 43 nM; on human GPR4 [3], 81 nM. `CCc1nn2c(C)cc(C)nc2c1Cc1ccc(/C=C/CN2CCN(C[C@@H](O)CO)CC2)cc1` [Example 17, (R)-3-(4-{(E)-3-[4-(2-Ethyl-5,7-dimethyl-pyrazolo[1,5-a]pyrimidin-3-ylmethyl)-phenyl]-allyl}-piperazin-1-yl)-propane-1,2-diol dihydrochloride]: the concentration for half-maximal inhibition (IC50) in assay [4] was found to be 120 nM.

For `CCc1nc2c(C)cc(C)nc2n1Cc1ccc(/C=C/CN2CCN(C(C)C)CC2)cc1` [Example 40, 2-Ethyl-3-{4-[(E)-3-(4-isopropyl-piperazin-1-yl)-propenyl]-benzyl}-5,7-dimethyl-3H-imidazo[4,5-b]pyridine], the recruitment of neutrophils entry in assay [5] was “significantly reduced”.

Turning to `CCc1nc2c(C)cc(C)nc2n1Cc1ccc(/C=C/CN2CCC(N3CCCCC3)CC2)cc1` [Example 41, 1′-{(E)-3-[4-(2-Ethyl-5,7-dimethyl-imidazo[4,5-b]pyridin-3-ylmethyl)-phenyl]-allyl}-[1,4′]bipiperidinyl dihydrochloride], the recruitment of neutrophils entry in assay [5] is reported as “significantly reduced”. For the molecule `CCc1nn2c(C)cc(C)nc2c1Cc1ccc(-c2nnc(C3CCNCC3)o2)cc1` [Example 35, 2-Ethyl-5,7-dimethyl-3-[4-(5-piperidin-4-yl-[1,3,4]oxadiazol-2-yl)-benzyl]-pyrazolo[1,5-a]pyrimidine], the IC50 in assay [4] is 530 nM.
